One block for each compound: values may come before it. Calls of active or inactive are those of the source.
Columns and labels:
Prothrombin = Prothrombin (Homo sapiens, UniProt P00734); assay: Thrombin 1536 HTS Dose Response Confirmation. [Related pubchem assays: 1046 (Thrombin 1536 HTS; hits were confirmed in this assay)]; type: functional
[1] = molecular target: T1, Polyadenylate-binding protein 1 (Homo sapiens, UniProt P11940); assay: MLLE binding blockers, Cy5 peptide tracer – biochemical, fluorescence polarization, Cy5-PAM2 peptide, secondary, miRNA deadenylation inhibitor project, dose response (AID 602260); type: functional; details: read-out: IC50_Mean
T1 sequence (P11940 whole entry): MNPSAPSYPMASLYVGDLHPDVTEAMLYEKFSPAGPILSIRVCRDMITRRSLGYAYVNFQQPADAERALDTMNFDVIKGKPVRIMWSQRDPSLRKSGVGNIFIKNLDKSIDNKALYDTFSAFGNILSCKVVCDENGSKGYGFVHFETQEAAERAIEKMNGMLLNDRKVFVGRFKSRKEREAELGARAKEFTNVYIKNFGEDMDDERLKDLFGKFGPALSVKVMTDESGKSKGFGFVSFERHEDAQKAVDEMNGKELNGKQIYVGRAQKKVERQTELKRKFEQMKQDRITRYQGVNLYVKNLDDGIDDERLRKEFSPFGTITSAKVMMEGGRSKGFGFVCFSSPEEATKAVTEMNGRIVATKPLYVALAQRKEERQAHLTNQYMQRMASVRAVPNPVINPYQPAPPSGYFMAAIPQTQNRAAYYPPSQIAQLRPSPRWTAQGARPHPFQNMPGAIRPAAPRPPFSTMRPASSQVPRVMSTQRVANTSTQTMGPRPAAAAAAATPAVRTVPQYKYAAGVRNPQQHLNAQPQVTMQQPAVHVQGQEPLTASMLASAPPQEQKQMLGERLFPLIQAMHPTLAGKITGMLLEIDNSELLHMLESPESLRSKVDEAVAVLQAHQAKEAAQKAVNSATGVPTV

[2] = molecular target: Voltage-gated inwardly rectifying potassium channel KCNH2 (Homo sapiens, UniProt Q12809); assay: concentration-dependent hERG rescue from blockers – cell-based, thallium flux, dose response (AID 2121); type: ADME
Sequence of Voltage-gated inwardly rectifying potassium channel KCNH2 (Q12809 whole entry, the tested form may be a part): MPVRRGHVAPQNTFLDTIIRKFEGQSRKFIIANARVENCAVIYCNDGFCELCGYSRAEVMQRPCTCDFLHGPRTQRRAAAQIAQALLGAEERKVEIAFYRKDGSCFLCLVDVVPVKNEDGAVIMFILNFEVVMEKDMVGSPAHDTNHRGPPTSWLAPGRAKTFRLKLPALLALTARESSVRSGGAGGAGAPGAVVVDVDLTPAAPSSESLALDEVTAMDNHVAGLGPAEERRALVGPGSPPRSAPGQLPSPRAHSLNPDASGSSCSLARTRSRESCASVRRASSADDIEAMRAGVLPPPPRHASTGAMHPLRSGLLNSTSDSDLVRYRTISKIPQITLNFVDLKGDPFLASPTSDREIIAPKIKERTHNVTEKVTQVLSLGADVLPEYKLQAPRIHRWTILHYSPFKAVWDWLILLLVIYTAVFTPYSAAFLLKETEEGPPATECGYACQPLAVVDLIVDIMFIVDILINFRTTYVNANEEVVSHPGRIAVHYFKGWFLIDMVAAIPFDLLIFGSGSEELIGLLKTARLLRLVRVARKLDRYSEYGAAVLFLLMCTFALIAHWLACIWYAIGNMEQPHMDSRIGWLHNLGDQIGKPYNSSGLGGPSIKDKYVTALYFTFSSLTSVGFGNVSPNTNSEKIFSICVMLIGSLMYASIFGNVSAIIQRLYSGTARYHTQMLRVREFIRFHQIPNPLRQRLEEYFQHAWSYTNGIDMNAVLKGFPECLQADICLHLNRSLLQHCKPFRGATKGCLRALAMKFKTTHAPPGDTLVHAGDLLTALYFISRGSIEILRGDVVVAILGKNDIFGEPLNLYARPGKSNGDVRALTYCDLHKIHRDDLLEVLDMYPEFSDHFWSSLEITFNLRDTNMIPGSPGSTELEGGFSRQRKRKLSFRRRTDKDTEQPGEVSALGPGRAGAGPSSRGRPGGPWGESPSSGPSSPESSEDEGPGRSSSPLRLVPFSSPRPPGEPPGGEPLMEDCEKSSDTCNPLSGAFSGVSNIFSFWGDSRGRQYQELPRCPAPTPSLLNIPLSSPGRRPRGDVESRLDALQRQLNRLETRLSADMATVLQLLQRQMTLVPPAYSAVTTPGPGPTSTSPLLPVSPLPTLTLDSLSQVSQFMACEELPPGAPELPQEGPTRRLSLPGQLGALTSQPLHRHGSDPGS

[3] = molecular target: T1, Polyadenylate-binding protein 1; assay: MLLE domain peptide-binding blockers, IC50 – biochemical, fluorescence polarization, FITC-PAM2 peptide, dose response (AID 602259); type: functional; details: read-out: IC50_Mean
[4] = Counterscreen for IDE inhibitors: Luminescence-based cell-based high throughput dose response assay to identify compounds that are cytotoxic to HEK cells. [Related pubchem assays: 434962 (Primary screen (IDE inhibitors in singlicate)), 449730 (Counterscreen (Cytotoxicity in triplicate)), 435028 (Confirmation (IDE inhibitors in triplicate)) …; type: functional; details: HEK293
Insulin-degrading enzyme = molecular target: T2, Insulin-degrading enzyme (Homo sapiens, UniProt P14735); assay: Dose Response: Fluorescence polarization-based cell-based high throughput dose response assay for inhibitors of insulin-degrading enzyme (IDE). [Related pubchem assays: 434962 (Primary screen (IDE inhibitors in singlicate)), 449730 (Counterscreen (Cytotoxicity in triplicate)), 435028 (Confirmation (IDE inhibitors in triplicate)), 434984 (Summary …; type: functional
T2 sequence (P14735 whole entry): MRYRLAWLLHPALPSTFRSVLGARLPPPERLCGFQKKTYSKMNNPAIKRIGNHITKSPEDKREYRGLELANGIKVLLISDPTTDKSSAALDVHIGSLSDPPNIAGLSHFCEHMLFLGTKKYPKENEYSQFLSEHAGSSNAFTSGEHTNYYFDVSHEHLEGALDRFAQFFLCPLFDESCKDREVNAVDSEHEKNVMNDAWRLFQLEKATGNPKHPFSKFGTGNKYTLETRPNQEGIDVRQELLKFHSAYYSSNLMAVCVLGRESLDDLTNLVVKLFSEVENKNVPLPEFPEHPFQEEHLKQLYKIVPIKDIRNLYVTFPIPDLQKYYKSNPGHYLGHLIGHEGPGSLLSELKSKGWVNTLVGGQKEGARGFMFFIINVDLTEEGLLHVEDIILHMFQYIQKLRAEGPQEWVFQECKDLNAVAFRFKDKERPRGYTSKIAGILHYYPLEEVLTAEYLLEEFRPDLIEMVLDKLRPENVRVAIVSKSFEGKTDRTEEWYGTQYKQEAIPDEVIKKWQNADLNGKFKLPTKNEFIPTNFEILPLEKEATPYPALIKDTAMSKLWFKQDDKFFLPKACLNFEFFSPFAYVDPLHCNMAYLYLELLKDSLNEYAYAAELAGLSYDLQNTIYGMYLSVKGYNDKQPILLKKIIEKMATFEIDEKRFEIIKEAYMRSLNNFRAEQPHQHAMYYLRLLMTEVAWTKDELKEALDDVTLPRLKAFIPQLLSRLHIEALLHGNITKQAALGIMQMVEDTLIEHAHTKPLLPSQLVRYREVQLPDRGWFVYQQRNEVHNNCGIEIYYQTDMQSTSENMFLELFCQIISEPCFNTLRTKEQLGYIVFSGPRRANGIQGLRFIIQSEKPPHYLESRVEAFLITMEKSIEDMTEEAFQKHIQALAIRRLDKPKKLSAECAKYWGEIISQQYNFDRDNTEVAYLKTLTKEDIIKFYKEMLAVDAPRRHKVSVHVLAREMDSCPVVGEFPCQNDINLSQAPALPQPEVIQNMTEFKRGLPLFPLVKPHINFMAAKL

[5] = molecular target: Glyceraldehyde-3-phosphate dehydrogenase (Homo sapiens, UniProt P04406)
Sequence of Glyceraldehyde-3-phosphate dehydrogenase (P04406 whole entry): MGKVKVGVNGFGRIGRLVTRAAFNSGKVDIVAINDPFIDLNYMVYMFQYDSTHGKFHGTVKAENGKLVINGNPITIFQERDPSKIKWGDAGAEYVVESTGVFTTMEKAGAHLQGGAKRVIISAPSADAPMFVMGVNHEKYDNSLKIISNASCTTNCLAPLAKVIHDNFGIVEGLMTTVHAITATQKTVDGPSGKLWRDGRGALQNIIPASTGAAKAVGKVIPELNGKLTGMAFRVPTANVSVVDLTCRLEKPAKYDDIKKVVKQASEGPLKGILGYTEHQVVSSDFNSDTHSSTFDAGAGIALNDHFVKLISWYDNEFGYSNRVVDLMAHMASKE

[6] = Reduced DLD-1 viability, concentration-response, CellTiter-Glo luminescence (AID 1117352); type: functional
[7] = CellTiter-Glo luminescence survival assay, SW480 colon tumor line, concentration-response curve, half-maximal inhibitory concentration (AID 1117338); type: functional
[8] = SNU-C1 cell viability reduction, dose response, CellTiter-Glo luminescence (AID 1117323); type: functional, cell-based
[9] = RKO cell viability reduction, dose response, CellTiter-Glo luminescence (AID 1117322); type: functional
[10] = cytotoxicity toward Colo320 cells – cell-based, CellTiter-Glo luminescence, IC50, dose response (AID 1117334); type: functional; details: COLO 320
[11] = cytotoxicity toward HCT116 cells – cell-based, CellTiter-Glo luminescence, IC50, dose response (AID 1117332); type: functional; details: HCT-116
[12] = cytotoxicity toward HT-29 cells – cell-based, CellTiter-Glo luminescence, IC50, dose response (AID 1117330); type: functional
[13] = HEK-293T cell viability reduction – luminescence, B-cell screen hits, cytotoxicity control for BCR NF-kB inhibitor project, dose response (AID 489021); type: functional, cell-based;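 further: HEK-293T cells carrying an NF-kB luciferase reporter; cells exposed to compound for about 14 hours before viability readout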
Cytochrome P450 2C19 = Cytochrome P450 2C19 (Homo sapiens, UniProt P33261); assay: Cytochrome panel assay with activity outcomes. Panel member name: p450-cyp2c19 Compounds with AC50 equal or less than 10 uM are considered active; type: functional; details: read-out: AC50
Sequence of Cytochrome P450 2C19 (P33261 whole entry): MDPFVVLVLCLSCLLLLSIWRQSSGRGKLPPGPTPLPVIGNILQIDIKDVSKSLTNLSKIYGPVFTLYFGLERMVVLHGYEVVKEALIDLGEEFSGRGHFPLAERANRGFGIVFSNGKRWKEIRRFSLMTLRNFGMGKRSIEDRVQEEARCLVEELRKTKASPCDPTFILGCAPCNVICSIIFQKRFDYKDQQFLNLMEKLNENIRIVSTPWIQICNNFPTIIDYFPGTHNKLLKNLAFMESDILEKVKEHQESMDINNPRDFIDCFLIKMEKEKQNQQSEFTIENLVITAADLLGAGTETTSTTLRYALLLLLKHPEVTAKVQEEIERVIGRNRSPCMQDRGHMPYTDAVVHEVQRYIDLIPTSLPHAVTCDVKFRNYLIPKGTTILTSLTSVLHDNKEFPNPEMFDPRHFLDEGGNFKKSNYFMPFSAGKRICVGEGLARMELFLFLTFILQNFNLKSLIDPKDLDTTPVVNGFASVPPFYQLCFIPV

HT-1080 = assay: HT1080 cell viability loss – fluorescence readout (AID 620); type: functional, cell-based; details: Homo sapiens
[14] = molecular target: Luciferin 4-monooxygenase (Photinus pyralis, UniProt P08659); assay: Counter Screen for Luciferase-based Assay Positives. [Related pubchem assays: 620, 618, 411 ]
Sequence of Luciferin 4-monooxygenase (P08659 whole entry): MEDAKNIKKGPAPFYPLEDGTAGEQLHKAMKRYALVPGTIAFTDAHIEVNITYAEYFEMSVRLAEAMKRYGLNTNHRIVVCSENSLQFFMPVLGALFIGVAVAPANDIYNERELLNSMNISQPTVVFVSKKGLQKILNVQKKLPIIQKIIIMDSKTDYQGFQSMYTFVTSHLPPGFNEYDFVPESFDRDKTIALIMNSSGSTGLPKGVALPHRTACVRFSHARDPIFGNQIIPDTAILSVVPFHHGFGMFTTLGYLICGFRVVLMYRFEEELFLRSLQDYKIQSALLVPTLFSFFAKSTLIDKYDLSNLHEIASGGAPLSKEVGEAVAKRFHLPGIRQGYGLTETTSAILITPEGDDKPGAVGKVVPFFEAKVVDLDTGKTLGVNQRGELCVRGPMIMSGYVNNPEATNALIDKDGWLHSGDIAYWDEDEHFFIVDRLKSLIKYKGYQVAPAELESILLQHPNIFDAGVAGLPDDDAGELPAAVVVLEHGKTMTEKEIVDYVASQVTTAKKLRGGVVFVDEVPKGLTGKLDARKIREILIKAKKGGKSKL

[15] = molecular target: Neurotensin receptor type 1 (Homo sapiens, UniProt P30989); type: functional;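 further: Image-based confirmatory dose-response assay measuring agonist activity at NTR1; NTR1-expressing U2OS osteosarcoma cells imaged for beta-arrestin GFP spot formation; agonist potency where compounds increase beta-arrestin recruitment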
Sequence of Neurotensin receptor type 1 (P30989 whole entry): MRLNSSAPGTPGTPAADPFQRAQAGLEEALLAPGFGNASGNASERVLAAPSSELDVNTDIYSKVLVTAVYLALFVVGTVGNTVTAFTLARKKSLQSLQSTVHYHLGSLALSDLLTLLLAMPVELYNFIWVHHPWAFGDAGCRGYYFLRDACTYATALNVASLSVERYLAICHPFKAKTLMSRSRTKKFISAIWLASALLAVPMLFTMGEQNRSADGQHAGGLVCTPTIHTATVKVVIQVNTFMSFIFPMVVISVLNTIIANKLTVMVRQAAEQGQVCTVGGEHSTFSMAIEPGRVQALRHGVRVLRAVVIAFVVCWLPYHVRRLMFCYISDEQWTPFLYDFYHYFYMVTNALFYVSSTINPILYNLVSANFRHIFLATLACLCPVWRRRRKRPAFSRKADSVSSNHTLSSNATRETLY

SMILES: CCc1ccccc1N1C(=O)CC(=O)NC1=O
IC50 (Prothrombin): > 50 µM (not active)

IC50 [1]: > 66 µM (inactive)
IC50 [3]: > 66 µM (inactive)
SMILES: O=C(NC(=S)Nc1nc(-c2ccccc2)cs1)c1cncc(Br)c1
EC50 [2]: 11.2 µM (active)

SMILES: CC1CCN(c2ccc3c(c2)S(=O)(=O)c2cccc(C(=O)NC4CC4)c2C3=O)CC1
IC50 [4]: 22.6 µM (not active)
IC50 (Insulin-degrading enzyme): > 55.9 µM (not active)

SMILES: CCN(CC)C(=S)NC(=O)c1ccc(OC)c(Br)c1
EC50 [2]: 0.66 µM (active)

IC50 [5]: > 100 µM (not active)
SMILES: O=C(O)c1cc(-c2ccc(/C=N/n3cnnc3)o2)ccc1O

SMILES: NC(=O)N/N=C/c1ccc([N+](=O)[O-])o1 [NITROFURAZONE]
IC50 [6]: > 20 µM (inactive)
IC50 [7]: > 20 µM (inactive)
IC50 [8]: > 20 µM (inactive)
IC50 [9]: > 20 µM (inactive)
IC50 [10]: > 20 µM (inactive)
IC50 [11]: > 20 µM (inactive)
IC50 [12]: > 20 µM (inactive)

SMILES: COc1ccc(OC)c(C2CC(=O)Nc3cc(OC)c(OC)c(OC)c32)c1 (stereo unspecified)
IC50 [13]: > 80 µM (inactive)

IC50 (Prothrombin): 0.812 µM (active)
SMILES: CN(C)S(=O)(=O)c1ccc(C(=O)Oc2cc(O)nc3ccccc23)cc1

SMILES: Cc1oncc1C(=O)Nc1ccc(C(F)(F)F)cc1 [LEFLUNOMIDE]
AC50 (Cytochrome P450 2C19): 15.8 µM (inconclusive)
EC50 (HT-1080): > 50 µM (not active)
EC50 [14]: 840 nM (active)

EC50 [15]: 4.16 µM (active)
SMILES: CCc1cccc(CC)c1-n1c(SCC(=O)N2CCc3ccccc3C2)nnc1-c1cccnc1

— ChEMBL document CHEMBL1201862, “PubChem BioAssay data set” (2004)
